Test results: article PMC9220111, “Pharmacokinetics and Pharmacodynamics of Colistin Methanesulfonate in Healthy Chinese Subjects after Multi-Dose Regimen” (Antibiotics, 2022)
Entries after “also recorded” stand apart in the source; their conditions may differ.

How the values were obtained:
[1] = human, in vivo; cited from earlier work
[2] = Safety evaluation: clinical adverse events and laboratory tests; format: in vivo, human
Protocol: (§1) During the study, close observations and detailed records were kept in all subjects for clinical adverse events (AE), abnormal results of clinical laboratory tests and other specific examinations. The early renal damage indicators, including serum β2-microglobulin, serum Cysteine […] inhibitor C (Cystatin C), urine neutrophils gelatinase-associated lipocalin (NGAL) and urine β2-microglobulin, were tested at day 4 and day 8 after the start of drug administration.

[3] = human, in vivo, iv
Protocol: (§2) A single-center, open-label, multi-dose trial design was conducted following multiple intravenous administrations of CMS in 12 healthy Chinese subjects.
(§3) The dose regimen was 2.5 mg/kg CBA for 7 consecutive days with 12 h between each administration, except for one dose on day 1 (first dose) and day 7 (last dose). Each intravenous infusion time was 90 ± 10 min.
(§4) The blood samples were collected on day 1 and day 7 at pre-dose during intravenous infusion (30 min and 60 min after the start of intravenous infusion), immediately after the end of intravenous infusion (1.5 h) and at 1.75 h, 2 h, 2.5 h, 3.5 h, 5 h, 7 h, 9 h, 12 h, 16 h and 24 h after the start of intravenous infusion. From day 2 to day 6, blood samples were collected before and immediately after the end of infusion of the first dose. All blood samples were collected and transferred into an EDTA-K2 tube, and were then centrifuged at 3500 rpm for 10 min at 4 °C. Within 1 h after blood collection, the plasma samples were stored at −70 ± 10 °C until analysis [10].
(§5) The concentrations of CMS and colistin in plasma and urine samples were analyzed with a verified ultra-performance liquid chromatography tandem mass spectrometry method [30]. To determine the free colistin concentration, the matrix was alkalized with 5% ammonia at 0–4 °C, and CMS concentrations were obtained with acid hydrolysis, and then loaded onto the Oasis weak cation exchange 96-well plate (WCX, Waters, Milford, MA, USA). The standard curves of colistin A/colistin B for the plasma and urine samples ranged from 0.0446/0.0332–4.46/3.32 μg/mL to 0.0223/0.0166–2.23/1.66 μg/mL [10], respectively. The concentrations of colistin and CMS were determined as the major components of colistin A+ colistin B and colistin A methanesulfonate (CMS A) + colistin B methanesulfonate (CMS B), respectively.
(§6) The PK parameters of CMS and colistin in plasma were calculated by the non-compartment model [23] using the WinNonlin8.0 software (Pharsight, Mountain View, CA, USA). […] The urine excretion rate was calculated according to the correction of renal clearance (CLr). The PK parameters in urine samples calculated included interval urinary excretion rate, cumulative urinary excretion rate and CLr.
(§7) The PK parameters were expressed as average ± standard deviation (mean ± SD). The main PK parameters after the first and last doses were evaluated by paired t test (SAS 9.4, SAS Institute, Inc., Cary, NC, USA). p value ≤ 0.05 was considered as significant.

[4] = Plasma pharmacokinetics of CMS and colistin after multi-dose intravenous infusions of CMS; conditions: mean ± SD, n = 12, SD; for CLr: renal clearance
Protocol: as §2, §3, §4, §5, §6, §7

[5] = Early renal damage indicators, serum creatinine and urea; format: in vivo, human; conditions: Day8; individual subjects S01–S12, one line each; normal range 0.7-1.8 mg/L
Protocol: as §1

[6] = 12 healthy Chinese subjects, CMS 2.5 mg/kg CBA i.v. q12 h 7 days
[7] = individual healthy Chinese subjects S01–S12, one line each, CMS 2.5 mg/kg CBA i.v. q12 h 7 days
[8] = Day 1 (first dose), CMS 2.5 mg/kg CBA i.v.
[9] = Day 1 (first dose), CMS 2.5 mg/kg CBA i.v., plasma
[10] = Day 7 (last dose), CMS 2.5 mg/kg CBA i.v. q12 h 7 days
[11] = Day 7 (last dose, steady state), CMS 2.5 mg/kg CBA i.v. q12 h 7 days, plasma

Substance: Colistin methanesulfonate [CMS]
- incidence of nephrotoxicity [1]: 26.0–74.1%
- Deaths or serious adverse events [2, 6]: No serious adverse events were observed; also recorded: No deaths or other serious adverse events occurred
- Vital signs, QTc and electrocardiogram [2, 6]: No abnormal vital signs nor QTc prolongations or other clinically significant electrocardiogram abnormalities were found
- Nephrotoxicity ([2]; 12 healthy Chinese subjects, CMS 2.5 mg/kg CBA i.v. q12 h 7 days, no increase in urine β2 microglobulin and urine NGAL): no nephrotoxicity was observed; also recorded: No obvious nephrotoxicity occurred
- Subjects with adverse effects ([2]; 12 healthy Chinese subjects, after multi-dose i.v. infusions of CMS, all mild and transient): Eleven out of the twelve
- Abnormality in Laboratory Test [2, 7]: Normal; also recorded: Decreased absolute value of neutrophils (2 days)
- Clinical Adverse Event (Duration) [2, 7]: Facial itchiness (4 days and 12 h) Tongue numbness (5 days and 2 h) Dizziness (2 days and 16 h); also recorded: Facial itchiness (2 days and 3 h) Tongue numbness (5 days and 8 h); also recorded: Tongue numbness (6 days and 12 h) Lip numbness (5 days and 10 h) Sore throat (1 day and 23 h) Erythema (6 days and 13 h); also recorded: Normal; also recorded: Tongue numbness (5 days and 20 h) Dizziness (4 h); also recorded: Tongue numbness (5 days and 14 h); also recorded: Tongue numbness (5 days and 8 h) Dizziness (2 days and 13 h) Headache (1 day and 19 h) Lip numbness (1 day and 10 h) Skin itchiness (1 day and 20 h); also recorded: Tongue numbness (5 days and 20 h) Lip numbness (2 days and 15 h) Pharyngeal discomfort (5 days and 16 h) Facial numbness (4 days and 16 h)
- T1/2, median [3]: 1.72 h
- half-life [3]: 1.52 h
- CLt [4, 8]: 0.08 ± 0.02 L/h/kg
- Vd [4, 8]: 0.15 ± 0.03 L/kg
- fm (fraction of CMS converted to colistin in the body) [4, 8]: 0.27 ± 0.12
- AUC0–12 [4, 9]: 53.73 ± 9.77 µg·h/mL
- AUC0–24 [4, 9]: 53.96 ± 9.93 µg·h/mL
- CLr ([4]; Day 1 (first dose), CMS 2.5 mg/kg CBA i.v., day 1 urine stored without BSA, for reference only): 0.06 ± 0.01 L/h/kg
- Cmax ([4]; Day 1 (first dose), healthy Chinese subjects, CMS 2.5 mg/kg CBA i.v. infusion 90 min, plasma, UPLC-MS/MS, non-compartment model): 22.2 ± 4.38 µg/mL
- fm (fraction of CMS converted to colistin in the body) [4, 10]: 0.45 ± 0.15
- CLr [4, 10]: 0.04 ± 0.02 L/h/kg
- CLt ([4]; Day 7 (last dose, steady state), CMS 2.5 mg/kg CBA i.v. q12 h 7 days): 0.08 ± 0.02 L/h/kg
- Cavg,ss [4, 11]: 4.41 ± 0.754 µg/mL
- Cmin,ss [4, 11]: 0.133 ± 0.141 µg/mL
- AI (accumulation index) ([4]; Day 7, after 7 consecutive days of CMS 2.5 mg/kg CBA i.v. q12 h): 1.07 ± 0.10
- serum β2-microglobulin [5]: 1.72 mg/L
